Measurements taken from PubChem BioAssay AID2060358 (Molecular Pharmacology Branch, DTP, NCI, 2025).
Several values for one entry are separate records, joined by “and”; a condition that tells them apart may be missing. Equal values may be shown once.

Test system: 254851-301-R-J1-PDC spheroids, viability % test/control
Assay: Anticancer human tumor 254851-301-R-J1-PDC patient-derived colon carcinoma cell line growth inhibition [TAK]
Conditions: spheroids with HUVEC and MSC; for viability, T/C: stronger effect = lower value
In short: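 Spheroids of 60% malignant cells, 25% HUVEC and 15% hMSC were exposed to targeted agents combined with TAK-243 or ipatasertib. Concentrations started at or near clinical Cmax (10 microM if unknown) and descended in half-log steps.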

[1] = curve of first compound, second compound 0.3 µM
[2] = curve of first compound, second compound 0.949 µM
[3] = curve of first compound, second compound 3 µM
[4] = curve of first compound, second compound 9.49 µM
[5] = curve of first compound, second compound 30 µM
[6] = second compound 0.3 µM, first compound 0.00316 µM
[7] = second compound 0.3 µM, first compound 0.01 µM
[8] = second compound 0.3 µM, first compound 0.0316 µM
[9] = second compound 0.3 µM, first compound 0.1 µM
[10] = second compound 0.949 µM, first compound 0.00316 µM
[11] = second compound 0.949 µM, first compound 0.01 µM
[12] = second compound 0.949 µM, first compound 0.0316 µM
[13] = second compound 0.949 µM, first compound 0.1 µM
[14] = second compound 3 µM, first compound 0.00316 µM
[15] = second compound 3 µM, first compound 0.01 µM
[16] = second compound 3 µM, first compound 0.0316 µM
[17] = second compound 3 µM, first compound 0.1 µM
[18] = second compound 9.49 µM, first compound 0.00316 µM
[19] = second compound 9.49 µM, first compound 0.01 µM
[20] = second compound 9.49 µM, first compound 0.0316 µM
[21] = second compound 9.49 µM, first compound 0.1 µM
[22] = second compound 30 µM, first compound 0.00316 µM
[23] = second compound 30 µM, first compound 0.01 µM
[24] = second compound 30 µM, first compound 0.0316 µM
[25] = second compound 30 µM, first compound 0.1 µM
[26] = second compound 0.3 µM, first compound 0.316 µM
[27] = second compound 0.3 µM, first compound 1 µM
[28] = second compound 0.3 µM, first compound 3.16 µM
[29] = second compound 0.3 µM, first compound 10 µM
[30] = second compound 0.949 µM, first compound 0.316 µM
[31] = second compound 0.949 µM, first compound 1 µM
[32] = second compound 0.949 µM, first compound 3.16 µM
[33] = second compound 0.949 µM, first compound 10 µM
[34] = second compound 3 µM, first compound 0.316 µM
[35] = second compound 3 µM, first compound 1 µM
[36] = second compound 3 µM, first compound 3.16 µM
[37] = second compound 3 µM, first compound 10 µM
[38] = second compound 9.49 µM, first compound 0.316 µM
[39] = second compound 9.49 µM, first compound 1 µM
[40] = second compound 9.49 µM, first compound 3.16 µM
[41] = second compound 9.49 µM, first compound 10 µM
[42] = second compound 30 µM, first compound 0.316 µM
[43] = second compound 30 µM, first compound 1 µM
[44] = second compound 30 µM, first compound 3.16 µM
[45] = second compound 30 µM, first compound 10 µM
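Also: spheroids exposed to drugs for seven days before viability readout.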
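For viability, T/C in this document: 100% = DMSO vehicle control viability.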

Cn1cnc2c(F)c(Nc3ccc(Br)cc3Cl)c(C(=O)NOCCO)cc21
viability, T/C (compound 0.00949 µM): 119% and 114%
viability, T/C (compound 0.03 µM): 120% and 117%
viability, T/C (compound 0.0949 µM): 105% and 117%
viability, T/C (compound 0.3 µM): 103% and 98.6%
viability, T/C (compound 0.949 µM): 76.3% and 84.4%
viability, T/C (compound 3 µM): 12.5% and 22.5%
IC50 (curve of compound): 1510 nM and 1760 nM

CC(C)n1nc(-c2ccc3oc(N)nc3c2)c2c(N)ncnc21 + CC(C)NCC(C(=O)N1CCN(c2ncnc3c2C(C)CC3O)CC1)c1ccc(Cl)cc1
IC50 [1]: 41.9 nM
IC50 [2]: 31.1 nM
IC50 [3]: 44.4 nM
IC50 [4]: 35.7 nM
IC50 [5]: 24.8 nM
viability, T/C (second compound 0.3 µM, first compound 0.000316 µM): 119%
viability, T/C (second compound 0.3 µM, first compound 0.001 µM): 101%
viability, T/C [6]: 93.3%
viability, T/C [7]: 78.4%
viability, T/C [8]: 54.3%
viability, T/C [9]: 32.4%
viability, T/C (second compound 0.949 µM, first compound 0.000316 µM): 102%
viability, T/C (second compound 0.949 µM, first compound 0.001 µM): 101%
viability, T/C [10]: 94.7%
viability, T/C [11]: 78.3%
viability, T/C [12]: 49.3%
viability, T/C [13]: 33.6%
viability, T/C (second compound 3 µM, first compound 0.000316 µM): 100%
viability, T/C (second compound 3 µM, first compound 0.001 µM): 105%
viability, T/C [14]: 85.2%
viability, T/C [15]: 72.7%
viability, T/C [16]: 57.5%
viability, T/C [17]: 36.2%
viability, T/C (second compound 9.49 µM, first compound 0.000316 µM): 96.6%
viability, T/C (second compound 9.49 µM, first compound 0.001 µM): 109%
viability, T/C [18]: 90.8%
viability, T/C [19]: 76.6%
viability, T/C [20]: 53%
viability, T/C [21]: 31.9%
viability, T/C (second compound 30 µM, first compound 0.000316 µM): 88.1%
viability, T/C (second compound 30 µM, first compound 0.001 µM): 86.5%
viability, T/C [22]: 84.5%
viability, T/C [23]: 69.6%
viability, T/C [24]: 44.9%
viability, T/C [25]: 31.1%

CC(C)(C)c1nc(-c2cccc(NS(=O)(=O)c3c(F)cccc3F)c2F)c(-c2ccnc(N)n2)s1 + CC(C)NCC(C(=O)N1CCN(c2ncnc3c2C(C)CC3O)CC1)c1ccc(Cl)cc1
IC50 [1]: > 10000 nM
IC50 [2]: > 10000 nM
IC50 [3]: > 10000 nM
IC50 [4]: > 10000 nM
IC50 [5]: > 10000 nM
viability, T/C [8]: 114%
viability, T/C [9]: 103%
viability, T/C [26]: 87.3%
viability, T/C [27]: 84.8%
viability, T/C [28]: 77%
viability, T/C [29]: 72%
viability, T/C [12]: 115%
viability, T/C [13]: 104%
viability, T/C [30]: 95.2%
viability, T/C [31]: 81%
viability, T/C [32]: 76%
viability, T/C [33]: 75.4%
viability, T/C [16]: 106%
viability, T/C [17]: 107%
viability, T/C [34]: 88.1%
viability, T/C [35]: 79.4%
viability, T/C [36]: 75.6%
viability, T/C [37]: 63.8%
viability, T/C [20]: 101%
viability, T/C [21]: 105%
viability, T/C [38]: 92.5%
viability, T/C [39]: 78.4%
viability, T/C [40]: 71.8%
viability, T/C [41]: 64.7%
viability, T/C [24]: 79%
viability, T/C [25]: 81.7%
viability, T/C [42]: 83.9%
viability, T/C [43]: 69.1%
viability, T/C [44]: 59.7%
viability, T/C [45]: 54.6%

COc1c(OCCCN2CCOCC2)ccc2c3n(c(=NC(=O)c4cnc(N)nc4)nc12)CCN3 + CC(C)NCC(C(=O)N1CCN(c2ncnc3c2C(C)CC3O)CC1)c1ccc(Cl)cc1
IC50 [1]: > 1000 nM
IC50 [2]: > 1000 nM
IC50 [3]: > 1000 nM
IC50 [4]: > 1000 nM
IC50 [5]: > 1000 nM
viability, T/C [6]: 114%
viability, T/C [7]: 105%
viability, T/C [8]: 88.2%
viability, T/C [9]: 78.1%
viability, T/C [26]: 63.7%
viability, T/C [27]: 67.6%
viability, T/C [10]: 104%
viability, T/C [11]: 106%
viability, T/C [12]: 92.5%
viability, T/C [13]: 76.3%
viability, T/C [30]: 60%
viability, T/C [31]: 65%
viability, T/C [14]: 111%
viability, T/C [15]: 108%
viability, T/C [16]: 95.5%
viability, T/C [17]: 82.7%
viability, T/C [34]: 76.8%
viability, T/C [35]: 67.3%
viability, T/C [18]: 99.1%
viability, T/C [19]: 100%
viability, T/C [20]: 101%
viability, T/C [21]: 82.4%
viability, T/C [38]: 75.8%
viability, T/C [39]: 74.4%
viability, T/C [22]: 81.5%
viability, T/C [23]: 85.1%
viability, T/C [24]: 84.2%
viability, T/C [25]: 71.5%
viability, T/C [42]: 69.8%
viability, T/C [43]: 59.9%

CC(C)CC(NC(=O)C(Cc1ccccc1)NC(=O)c1cnccn1)B(O)O (stereo unspecified)
viability, T/C (compound 31.6 pM): 118% and 114%
viability, T/C (compound 0.0001 µM): 107%
viability, T/C (compound 0.000316 µM): 111% and 101%
viability, T/C (compound 0.001 µM): 98.9% and 100%
viability, T/C (compound 0.00316 µM): 98.5% and 99.1%
viability, T/C (compound 0.01 µM): 75.7% and 80.8%
IC50 (curve of compound): > 10 nM

Cc1nc(NC(=O)N2CCCC2C(N)=O)sc1-c1ccnc(C(C)(C)C(F)(F)F)c1 (stereo unspecified) + CC(C)NCC(C(=O)N1CCN(c2ncnc3c2C(C)CC3O)CC1)c1ccc(Cl)cc1
IC50 [1]: > 10000 nM
IC50 [2]: > 10000 nM
IC50 [3]: > 10000 nM
IC50 [4]: > 10000 nM
IC50 [5]: > 10000 nM
viability, T/C [8]: 117%
viability, T/C [9]: 102%
viability, T/C [26]: 109%
viability, T/C [27]: 89.4%
viability, T/C [28]: 79.4%
viability, T/C [29]: 73.4%
viability, T/C [12]: 106%
viability, T/C [13]: 114%
viability, T/C [30]: 93.6%
viability, T/C [31]: 99.5%
viability, T/C [32]: 83.1%
viability, T/C [33]: 69%
viability, T/C [16]: 113%
viability, T/C [17]: 101%
viability, T/C [34]: 98%
viability, T/C [35]: 94.6%
viability, T/C [36]: 79.3%
viability, T/C [37]: 73.9%
viability, T/C [20]: 105%
viability, T/C [21]: 106%
viability, T/C [38]: 101%
viability, T/C [39]: 97.3%
viability, T/C [40]: 85%
viability, T/C [41]: 74.8%
viability, T/C [24]: 82.5%
viability, T/C [25]: 99.3%
viability, T/C [42]: 88.4%
viability, T/C [43]: 79.4%
viability, T/C [44]: 79.4%
viability, T/C [45]: 69.4%

COC1CC2CCC(C)C(O)(O2)C(=O)C(=O)N2CCCCC2C(=O)OC(C(C)CC2CCC(OCCO)C(OC)C2)CC(=O)C(C)C=C(C)C(O)C(OC)C(=O)C(C)CC(C)C=CC=CC=C1C (stereo unspecified)
viability, T/C (compound 0.000316 µM): 114% and 108%
viability, T/C (compound 0.001 µM): 109% and 92%
viability, T/C (compound 0.00316 µM): 101% and 89.6%
viability, T/C (compound 0.01 µM): 101% and 91.6%
viability, T/C (compound 0.0316 µM): 96% and 85.4%
viability, T/C (compound 0.1 µM): 98.1% and 84%
IC50 (curve of compound): > 100 nM
